Laboratory results reported in PubChem BioAssay (NCI).
Where “and” joins values, the source holds several entries; their conditions need not be identical. Equal entries are not always repeated.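 1) Cells in 96-well plates. 2) Compound, 48 h, 5 concentrations. 3) Linear interpolation between surrounding doses. 4) Unreached endpoint = highest concentration. Here, GI50 denotes the concentration required for 50% inhibition of growth. TGI: concentration producing complete growth inhibition.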

Assays:
Assay in all cases: NCI anticancer screen, dose series, 48 h
[1] = tested on: ACHN renal
[2] = tested on: HOP-62 NSCLC
[3] = tested on: HOP-92 NSCLC
[4] = tested on: K-562 leukemia
[5] = tested on: MALME-3M melanoma
[6] = tested on: NCI/ADR-RES ovarian
[7] = tested on: OVCAR-8 ovarian
[8] = tested on: SW-620 colon
[9] = tested on: TK-10 renal
[10] = tested on: UO-31 renal

SMILES	GI50 [1] [µM]	TGI [1] [µM]	GI50 [2] [µM]	TGI [2]	GI50 [3] [µM]	TGI [3] [µM]	GI50 [4] [µM]	GI50 [5] [µM]	TGI [5] [µM]	GI50 [6] [µM]	GI50 [7] [µM]	TGI [7] [µM]	GI50 [8] [µM]	TGI [8] [µM]	GI50 [9] [µM]	TGI [9] [µM]	GI50 [10] [µM]	TGI [10] [µM]	TGI [4] [µM]	TGI [6] [µM]
O=C(N/N=C/c1c(Cl)cccc1Cl)c1ccc(C(F)(F)F)nc1Nc1cccc(C(F)(F)F)c1	1.26	11.3	1.29	14.4 µM	0.293	3	0.491	2.17	9.23	0.616	1.07	> 45.6	0.458	> 51.1	2.87	> 91.4	1.49	5.82		
Cn1c(=O)c2c(ncn2CC(=O)Nc2ccc(-c3ccccc3)nn2)n(C)c1=O	> 100	> 100	> 100	> 100 µM	> 100	> 100	> 100	> 100	> 100	> 100	> 100	> 100	> 100	> 100	> 100	> 100	> 100	> 100	> 100	> 100
O=C(O)C12CC3(C(=O)O)CC(C(=O)O)(CC(C(=O)O)(C1)C3=O)C2=O		> 100		> 100 µM		> 100			> 100			> 100		> 100		> 100		> 100	> 100	> 100
O=c1[nH]c(=O)n([C@H]2CCCO2)cc1F	2600	> 5000	2340	994 µM and > 4660 µM		> 5000	2770	1360	> 5000	3030	2270	> 5000	1430	> 5000	1880	> 5000		> 5000	> 5000	> 5000
COC(=O)CCC1=C(CC(=O)OC)C(C)=N/C1=C\c1[nH]c(-c2ccc[nH]2)cc1OC	4.26	15.6	8.56	24.2 µM	1.83	5.9	2.7	6.8	23.3	4.06	2.92	11.4	3.63	18	3.58	16.6	3.44	14.7	12.5	16.9
COc1ccc2c3c(Nc4ccc(/C(C)=N/O)cc4)[nH]c4ccccc4c-3c(N=O)c2c1	0.568	2.54	11.6	30.9 µM	13.1	36	0.665	6.31	27.6	5.78	3.55	20.2	1.36	2.85	5.05	71.7	18.5	35.5	2.8	20.2
C[C@]12CC[C@@H]3c4ccc(O)c([N+](=O)[O-])c4CC[C@H]3[C@@H]1CC[C@@H]2NS(=O)(=O)c1cccc(Br)c1	2.59	8.17	1.9	3.54 µM	1.53	5.03	3.1	2.17	5.4	2.69	2.92	10.7	2.7	9.42	2.92	8.98	2.19	5.63	10.7	8.55
COC(=O)c1cc(/C=C/c2ccc(S(N)(=O)=O)cc2)ccc1O	29.6	> 100	41.7	> 100 µM	25.7	> 100	> 100	34.5	> 100	59.2	27.3	> 100	25.7	> 100	28.1	> 100	29.1	> 100	> 100	> 100
C/C(=N\NC(=S)N1CC2CCC(CC2)C1)c1ccccn1	0.0347	1.52	0.142	1.69 µM	0.0255	0.793	< 0.0108	0.121	1.49	< 0.0177	< 0.0209	1.53	0.033	1.57	0.405	1.78	0.021	1.63	2.21	2.43
Cc1ncc([N+](=O)[O-])n1CCNS(=O)(=O)CCCn1ncnc1[N+](=O)[O-]		> 100		> 100 µM		> 100			> 100			> 100		> 100		> 100		> 100	> 100	> 100
S=C1SC2=Nc3ccccc3CN2C2=NCCN12	> 100	> 100	> 100	> 100 µM	> 100	> 100	32.8	49.6	> 100	> 100	> 100	> 100	39.8	> 100	> 100	> 100	> 100	> 100	> 100	> 100
